Laboratory results taken from ChEMBL document CHEMBL4414637, “Resorcinosides A and B, Glycosylated Alkylresorcinols from a Marine-Derived Strain of the Fungus Penicillium janthinellum” (2019).
Where a name gives a salt, the structure may show the parent alone.

How the values were obtained:
Format in all cases: functional
MDA-MB-231 = assay: Cytotoxicity against human MDA-MB-231 cells assessed as cell growth inhibition measured after 48 hrs by SRB assay; conditions: MDA-MB-231, 48 h
PC-3 = assay: Cytotoxicity against human PC3 cells assessed as cell growth inhibition measured after 48 hrs by SRB assay; conditions: PC-3, 48 h
NUGC-3 = assay: Cytotoxicity against human NUGC3 cells assessed as cell growth inhibition measured after 48 hrs by SRB assay; conditions: NUGC-3, 48 h
NCI-H23 = assay: Cytotoxicity against human NCI-H23 cells assessed as cell growth inhibition measured after 48 hrs by SRB assay; conditions: NCI-H23, 48 h
ACHN = assay: Cytotoxicity against human ACHN cells assessed as cell growth inhibition measured after 48 hrs by SRB assay
HCT-15 = assay: Cytotoxicity against human HCT15 cells assessed as cell growth inhibition measured after 48 hrs by SRB assay; conditions: HCT-15, 48 h

For COc1cccc2c1C(=O)c1c(O)c3c(c(O)c1C2=O)C[C@@](O)(C(=O)CO)C[C@@H]3O[C@H]1C[C@H](N)[C@H](O)[C@H](C)O1 [DOXORUBICIN HYDROCHLORIDE], the GI50 (MDA-MB-231) was 0.15 µM, the GI50 (PC-3) was 0.14 µM and the GI50 (NUGC-3) was 0.15 µM. For the same compound, the GI50 (NCI-H23) was 0.14 µM, the GI50 (ACHN) was 0.13 µM and the GI50 (HCT-15) was 0.14 µM.
For CC[C@H](C)[C@@H](CCCCCCC/C=C/C=C/CCc1cc(O)cc(O)c1)O[C@H]1O[C@H](CO)[C@@H](O)[C@H](O)[C@H]1O, the GI50 (MDA-MB-231) was 25 µM, the GI50 (PC-3) was 21 µM and the GI50 (NUGC-3) was 9.3 µM. It also gave a GI50 (NCI-H23) of 24 µM, a GI50 (ACHN) of 31 µM and a GI50 (HCT-15) of 19 µM.
Compound CC[C@H](C)[C@@H](CCCCCCC/C=C/C=C/CCc1cc(O)cc(O)c1Cc1c(O)cc(C)oc1=O)O[C@H]1O[C@H](CO)[C@@H](O)[C@H](O)[C@H]1O has a GI50 (MDA-MB-231) of over 50 µM, a GI50 (PC-3) of over 50 µM and a GI50 (NUGC-3) of over 50 µM. The GI50 (NCI-H23) was over 50 µM, the GI50 (ACHN) was over 50 µM and the GI50 (HCT-15) was over 50 µM.
